Measured values as given in ChEMBL document CHEMBL1817609, “SAR studies of 4-pyridyl heterocyclic anilines that selectively induce autophagic cell death in von Hippel-Lindau-deficient renal cell carcinoma cells” (Bioorg Med Chem, 2011).

Experiments:
[1] = Growth inhibition of human RCC4/VHL cells after 4 days by XTT assay; type: functional, cell-based; conditions: 96 h
[2] = Selectivity ratio IC50 for human RCC4/VHL cells to IC50 for human RCC4 cells; type: functional
[3] = Growth inhibition of human RCC4 cells after 4 days by XTT assay; type: functional, cell-based; conditions: RCC4, 96 h

| Structure (SMILES) | IC50 [1] | Ratio IC50 [2] | IC50 ([3]; read-out: IC50) | IC50 ([3]; read-out: pIC50 (converted)) |
| --- | --- | --- | --- | --- |
| Cc1cccc(Nc2nc(-c3ccnc(-c4ccncc4)c3)cs2)c1 | 38 µM | 1.3 | 28.9 µM | 29.5 µM |
| C#Cc1cc(-c2csc(Nc3cccc(C)c3)n2)ccn1 | – | – | – | 18.2 µM |
| Cc1cccc(Nc2nc(-c3ccnc(C)c3)cs2)c1 | – | – | – | 28.8 µM |
| Cc1cccc(Nc2nc(-c3ccnc(-c4cn(Cc5ccccc5)nn4)c3)cs2)c1 | 14 µM | 6.7 | 2.1 µM | 2.14 µM |
| Cc1ccc(Nc2nc(-c3ccncc3)cs2)cc1C | – | – | – | 6.61 µM |
| FC(F)(F)c1ccccc1Nc1nc(-c2ccncc2)cs1 | – | – | – | 40.7 µM |
| Cc1ccc(Nc2nc(-c3ccncc3)cs2)cc1 | – | – | – | 2.51 µM |
| Cc1cc(C)cc(Nc2nc(-c3ccncc3)cs2)c1 | – | – | – | 4.57 µM |
| Cc1cccc(Nc2nc(-c3ccncc3Br)cs2)c1 | – | – | – | 3.98 µM |
| COc1cccc(Nc2nc(-c3ccncc3)cs2)c1 | – | – | – | 3.02 µM |
| Cc1cccc(Nc2nc(-c3ccncc3)ns2)c1 | > 40 µM | >1.6 | 24.8 µM | 25.1 µM |
| c1cc(-c2csc(Nc3ccc4c(c3)CCC4)n2)ccn1 | – | – | – | 2.04 µM |
| CC(C)(C)c1cccc(Nc2nc(-c3ccncc3)cs2)c1 | – | – | – | 60.3 µM |
| Clc1cccc(Nc2nc(-c3ccncc3)cs2)c1 | – | – | – | 3.02 µM |
| O=[N+]([O-])c1ccccc1Nc1nc(-c2ccncc2)cs1 | – | – | – | 40.7 µM |
| Brc1cccc(Nc2nc(-c3ccncc3)cs2)c1 | – | – | – | 40.7 µM |
| Cc1cccc(Nc2nc(-c3ccncc3C)cs2)c1 | – | – | – | 5.25 µM |
| Cc1cccc(Nc2nc(-c3ccnc(Cl)c3)cs2)c1 | – | – | – | 2.24 µM |
| Cc1cccc(Nc2nc(-c3ccnc(NCCN4CCOCC4)c3)cs2)c1 | 8 µM | 2.2 | 3.7 µM | 3.72 µM |
| Cc1cccc(Nc2nc(-c3ccncc3-c3ccc(C(=O)N4CCN(C)CC4)cc3)cs2)c1 | > 40 µM | >3.1 | 12.8 µM | 12.9 µM |
| Cc1cccc(Nc2nc(-c3ccncc3C#CCN3CCN(C)CC3)cs2)c1 | 2.2 µM | 0.9 | 2.6 µM | 2.63 µM |
| Cc1cccc(Nc2nc(-c3ccncc3-c3ccc(C(F)(F)F)cc3)cs2)c1 | 22.6 µM | 1.8 | 12.8 µM | 12.9 µM |
| Cc1cccc(Nc2nc(-c3ccncc3-c3ccc(S(=O)(=O)NC(C)(C)C)cc3)cs2)c1 | 22.5 µM | 5 | 4.5 µM | 4.57 µM |
| COc1ccccc1Nc1nc(-c2ccncc2)cs1 | – | – | – | 33.9 µM |
| C#Cc1cnccc1-c1csc(Nc2cccc(C)c2)n1 | – | – | – | 1.38 µM |
| Cc1cccc(Nc2nc(-c3ccnc(CCCO)c3)cs2)c1 | – | – | – | 5.25 µM |

| Structure (SMILES) | IC50 [1] | Ratio IC50 [2] | IC50 ([3]; read-out: IC50) | IC50 ([3]; read-out: pIC50 (converted)) |
| --- | --- | --- | --- | --- |
| Cc1cccc(Nc2nc(-c3ccnc(OCCN4CCOCC4)c3)cs2)c1 | 21.1 µM | 3 | 7 µM | 7.08 µM |
| Cc1cccc(Nc2nc(-c3ccnc(-c4cncnc4)c3)cs2)c1 | 37 µM | 1.4 | 26.4 µM | 26.9 µM |
| Cc1cccc(Nc2nc(-c3ccncc3-c3ccncc3)cs2)c1 | 34 µM | 2.5 | 13.8 µM | 13.8 µM |
| Cc1sc(Nc2ccc3c(c2)CCC3)nc1-c1ccncc1 | – | – | – | 12 µM |
| Cc1cccc(Nc2nnc(-c3ccncc3)n2C)c1 | > 40 µM | – | > 40 µM | 40.7 µM |
| COc1ccc(Nc2nc(-c3ccncc3)cs2)cc1 | – | – | – | 14.1 µM |
| Cc1cccc(Nc2nc(-c3ccncc3)c[nH]2)c1 | > 40 µM | – | > 40 µM | 40.7 µM |
| Cc1cccc(Nc2nc(-c3ccncc3-c3ccc(C(N)=O)cc3)cs2)c1 | 1.6 µM | – | 4.1 µM | 4.17 µM |
| Cc1cccc(Nc2nc(-c3ccnc(Br)c3)cs2)c1 | – | – | – | 2.04 µM |
| COC(=O)C=CC(=O)c1sc(Nc2cccc(C)c2)nc1-c1ccncc1 | – | – | – | 2.51 µM |
| CCc1cnccc1-c1csc(Nc2cccc(C)c2)n1 | – | – | – | 6.31 µM |
| Oc1ccc(Nc2nc(-c3ccncc3)cs2)cc1 | – | – | – | 5.37 µM |
| Cc1cccc(Nc2nc(-c3ccncc3Cl)cs2)c1 | – | – | – | 2.95 µM |
| Fc1ccccc1Nc1nc(-c2ccncc2)cs1 | – | – | – | 14.5 µM |
| Cc1cccc(Nc2nc(-c3ccncc3CCCO)cs2)c1 | – | – | – | 6.92 µM |
| Cc1cccc(Nc2nc(-c3ccncc3)c(CN3CCOCC3)s2)c1 | – | – | – | 2.51 µM |
| Oc1cccc(Nc2nc(-c3ccncc3)cs2)c1 | – | – | – | 28.8 µM |
| CC(C)c1cccc(Nc2nc(-c3ccncc3)cs2)c1 | – | – | – | 17.4 µM |
| Fc1cccc(Nc2nc(-c3ccncc3)cs2)c1 | – | – | – | 40.7 µM |
| Cc1cccc(Nc2nnc(-c3ccncc3)o2)c1 | > 40 µM | – | > 40 µM | 40.7 µM |
| Clc1ccccc1Nc1nc(-c2ccncc2)cs1 | – | – | – | 28.2 µM |
| Fc1ccc(Nc2nc(-c3ccncc3)cs2)cc1 | – | – | – | 6.03 µM |
| Cc1cccc(Nc2nc(-c3ccncc3)c(CCCN3CCOCC3)s2)c1 | – | – | – | 5.89 µM |
| Cc1cccc(Nc2nc(-c3ccncc3)co2)c1 | > 40 µM | – | > 40 µM | 40.7 µM |
| OCCc1ccc(Nc2nc(-c3ccncc3)cs2)cc1 | – | – | – | 5.01 µM |
| COc1ccc(Nc2nc(-c3ccncc3)cs2)cc1OC | – | – | – | 24.5 µM |

| Structure (SMILES) | IC50 [1] | Ratio IC50 [2] | IC50 ([3]; read-out: IC50) | IC50 ([3]; read-out: pIC50 (converted)) |
| --- | --- | --- | --- | --- |
| Cc1cccc(Nc2nc(-c3ccnc(F)c3)cs2)c1 | – | – | – | 4.57 µM |
| Cc1cccc(Nc2nc(-c3ccncc3-c3cn(Cc4ccccc4)nn3)cs2)c1 | > 40 µM | – | > 40 µM | 40.7 µM |
| Cc1cccc(N(C)c2nc(-c3ccncc3)cs2)c1 | – | – | – | 28.2 µM |
| Cc1cccc(Nc2nc(-c3ccncc3)c(CN3CCCCC3)s2)c1 | – | – | – | 13.2 µM |
| Cc1cccc(Nc2nc(-c3ccncc3C#CCCCO)cs2)c1 | 0.3 µM | – | 6.3 µM | 6.3 µM |
| CCc1cccc(Nc2nc(-c3ccncc3)cs2)c1 | – | – | – | 2.51 µM |
| Cc1cccc(Nc2nc(-c3ccncc3)c(CN(C)C)s2)c1 | – | – | – | 16.2 µM |
| Cc1cccc(Nc2nc(-c3ccnc(-c4cccc(F)n4)c3)cs2)c1 | > 40 µM | – | > 40 µM | > 40 µM |
| FC(F)(F)c1ccc(Nc2nc(-c3ccncc3)cs2)cc1 | – | – | – | 40.7 µM |
| Cc1cccc(Nc2nc(-c3ccncc3)c(C(N)=O)s2)c1 | – | – | – | 19.5 µM |
| Cc1cccc(Nc2nc(-c3cc(Cl)nc(Cl)c3)cs2)c1 | – | – | – | 15.1 µM |
| Clc1ccc(Nc2nc(-c3ccncc3)cs2)cc1 | – | – | – | 38 µM |
| Cc1cccc(Nc2nc(-c3ccncc3-c3ccc(C(C)C)cc3)cs2)c1 | > 40 µM | – | > 40 µM | 40.7 µM |
| Cc1cccc(Nc2nc(-c3ccncc3)c(C)s2)c1 | – | – | – | 10 µM |
| CN(C)CCOc1ccc(Nc2nc(-c3ccncc3)cs2)cc1 | – | – | – | 60.3 µM |
| OCc1sc(Nc2ccccc2)nc1-c1ccncc1 | – | – | – | 30.2 µM |
| Oc1ccccc1Nc1nc(-c2ccncc2)cs1 | – | – | – | 12.9 µM |
| CN(C)CCc1ccc(Nc2nc(-c3ccncc3)cs2)cc1 | – | – | – | 50.1 µM |
| Cc1ccc(Nc2nc(-c3ccncc3)cs2)cc1O | – | – | – | 12 µM |
| CCN(c1cccc(C)c1)c1nc(-c2ccncc2)cs1 | – | – | – | 40.7 µM |
| Cc1cccc(Nc2nc(-c3ccncc3)c(C(=O)N(C)C)s2)c1 | – | – | – | 16.2 µM |
| CCc1cc(-c2csc(Nc3cccc(C)c3)n2)ccn1 | – | – | – | 6.46 µM |
| Cc1cccc(Nc2nc(-c3ccncc3)c(CCCO)s2)c1 | – | – | – | 3.63 µM |
| Cc1cc(Nc2nc(-c3ccncc3)cs2)ccc1O | – | – | – | 70.8 µM |
| Clc1ccc(Nc2nc(-c3ccncc3)cs2)cc1Cl | – | – | – | 13.8 µM |
